Counter-ions that a name gives are not always drawn. Activity calls are given as the source filed them.
Legend:
[1] = reduction of Shn3 3'UTR-driven luciferase in osteoblasts – cell-based, Clone20 osteoblasts, firefly luciferase, cherry-picked, dose response (AID 624132); type: functional;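 also: firefly luciferase luminescence from reporter carrying the Shn3 3'UTR in osteoblasts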
[2] = non-specific 3'UTR reporter inhibition in Clone20-Shn3RL – cell-based, Renilla luciferase, cherry-picked, counter-screen for Shn3 inhibitor project, dose response (AID 624133); type: functional
[3] = target: T1, Short transient receptor potential channel 4 (Mus musculus, UniProt Q9QUQ5); assay: calcium entry via TRPC4 opening agents – cell-based, HEK293 TRPC4/mu-opioid, Fluo-4 calcium, dose response (AID 434937); type: functional
T1 sequence (Q9QUQ5 whole entry): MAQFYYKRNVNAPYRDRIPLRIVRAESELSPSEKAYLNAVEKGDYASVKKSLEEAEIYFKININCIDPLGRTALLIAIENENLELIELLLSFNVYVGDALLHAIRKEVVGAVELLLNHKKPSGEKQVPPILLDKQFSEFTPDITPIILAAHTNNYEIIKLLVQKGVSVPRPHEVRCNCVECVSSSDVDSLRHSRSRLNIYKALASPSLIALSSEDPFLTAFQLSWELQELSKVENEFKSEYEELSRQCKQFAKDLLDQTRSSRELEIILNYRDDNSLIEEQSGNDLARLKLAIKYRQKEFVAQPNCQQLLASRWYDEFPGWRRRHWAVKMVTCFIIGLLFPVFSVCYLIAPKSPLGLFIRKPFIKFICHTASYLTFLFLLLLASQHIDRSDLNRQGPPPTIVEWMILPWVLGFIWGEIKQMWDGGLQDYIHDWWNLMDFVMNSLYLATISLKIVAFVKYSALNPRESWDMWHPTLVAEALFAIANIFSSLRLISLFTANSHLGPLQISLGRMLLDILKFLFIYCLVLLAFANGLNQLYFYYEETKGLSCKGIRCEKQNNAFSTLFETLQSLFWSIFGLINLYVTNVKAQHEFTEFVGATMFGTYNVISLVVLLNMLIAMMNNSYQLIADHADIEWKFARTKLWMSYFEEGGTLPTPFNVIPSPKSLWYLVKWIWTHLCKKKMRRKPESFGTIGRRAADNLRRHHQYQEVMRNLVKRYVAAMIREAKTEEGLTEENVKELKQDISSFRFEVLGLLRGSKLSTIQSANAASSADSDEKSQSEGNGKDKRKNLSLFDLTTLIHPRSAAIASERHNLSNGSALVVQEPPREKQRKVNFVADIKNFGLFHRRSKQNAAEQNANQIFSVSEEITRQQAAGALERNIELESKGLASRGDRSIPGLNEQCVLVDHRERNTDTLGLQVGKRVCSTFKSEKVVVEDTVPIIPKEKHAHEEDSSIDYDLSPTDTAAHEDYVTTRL

[4] = tested on: INS1; assay: INS-1E survival protection against cytokine death – cell-based, luminescence, retest, dose response (AID 449756); type: functional; settings: Rattus norvegicus;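 also: cell death triggered by IL-1 beta plus TNF-alpha plus IFN-gamma mixture; protective hits raise ATP signal compared with cytokine alone wells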
[5] = target: Cytochrome P450 2C9 (Homo sapiens, UniProt P11712)
[6] = target: Sphingosine 1-phosphate receptor 2 (Homo sapiens, UniProt O95136); assay: Dose Response Cell Based Assay for Antagonists of the S1P2 Receptor. [Related pubchem assays: 856, 736 ]; type: functional
[7] = target: Galanin receptor type 2 (Homo sapiens, UniProt O43603); assay: Dose Response cell-based high-throughput screening assay to identify antagonists of galanin receptor 2 (GALR2). [Related pubchem assays: 828, 866 ]; type: functional
[8] = loss of viability in HepG2 cells – cell-based, CellTiter-Glo, cherry-picked, cytotoxicity control for Shn3 inhibitor project, dose response (AID 624134); type: functional
[9] = target: T2, Heat shock factor protein 1 (Mus musculus, UniProt P38532); assay: enhancement of HSF1-driven luciferase signal – cell-based, NIH3T3, luminescence, dose retest, confirmation (AID 435004); type: functional;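 also: stress induced by proteasome inhibitor MG132 added 30 min after compound; luciferase reporter driven by HSF1 response element in NIH3T3 cells; actives raise luminescence as potentiators of the MG132 stress response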
T2 sequence (P38532 whole entry): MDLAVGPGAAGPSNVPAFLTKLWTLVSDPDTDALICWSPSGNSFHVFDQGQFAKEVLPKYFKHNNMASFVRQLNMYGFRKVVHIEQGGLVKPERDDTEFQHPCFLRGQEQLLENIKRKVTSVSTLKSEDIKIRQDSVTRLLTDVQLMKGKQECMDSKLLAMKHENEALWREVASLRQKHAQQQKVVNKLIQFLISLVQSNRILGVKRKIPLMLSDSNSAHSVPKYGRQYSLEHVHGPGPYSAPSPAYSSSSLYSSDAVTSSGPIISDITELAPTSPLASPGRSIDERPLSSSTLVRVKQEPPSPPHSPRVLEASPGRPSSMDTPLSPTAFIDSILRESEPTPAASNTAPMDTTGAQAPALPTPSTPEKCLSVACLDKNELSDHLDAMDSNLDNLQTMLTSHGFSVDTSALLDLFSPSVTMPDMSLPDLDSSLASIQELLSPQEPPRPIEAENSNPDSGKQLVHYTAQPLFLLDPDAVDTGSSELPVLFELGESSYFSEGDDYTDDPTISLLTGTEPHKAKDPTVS

[10] = target: Aryl hydrocarbon receptor (Homo sapiens, UniProt P35869); assay: Luminescence-based cell-based high throughput dose response assay for activators of the Aryl Hydrocarbon Receptor (AHR). [Related pubchem assays: 2796 (Primary screen (AHR activators in singlicate)), 2845 (Confirmation screen (AHR activators in triplicate)), 434939 (Counterscreen (PXR activators in triplicate)), 2804 (Summary (AHR activators))]; type: ADME
[11] = target: T3, Dual specificity protein phosphatase 6 (Rattus norvegicus, UniProt Q64346); assay: inhibition of rat DUSP6 enzyme activity – biochemical, in vitro, primary screen (AID 425)
T3 sequence (Q64346 whole entry): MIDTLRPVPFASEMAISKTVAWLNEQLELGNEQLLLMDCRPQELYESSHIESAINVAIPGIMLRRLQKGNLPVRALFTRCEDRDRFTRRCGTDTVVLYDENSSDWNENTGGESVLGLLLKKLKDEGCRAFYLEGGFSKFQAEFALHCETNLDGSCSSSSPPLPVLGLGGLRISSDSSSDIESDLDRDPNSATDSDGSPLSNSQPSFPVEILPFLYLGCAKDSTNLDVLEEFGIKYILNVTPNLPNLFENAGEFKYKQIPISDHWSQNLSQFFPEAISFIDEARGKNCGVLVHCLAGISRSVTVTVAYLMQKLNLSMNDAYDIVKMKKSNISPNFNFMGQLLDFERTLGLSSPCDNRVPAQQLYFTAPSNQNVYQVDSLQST

[12] = HEK-293T viability loss, compound-treated – cell-based, uHTS hits, cytotoxicity control for B/T-cell NF-kB inhibitor project, dose response (AID 489019); type: functional;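 also: IC50 reflects cytotoxicity as loss of cell viability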
[13] = target: T4, ORF 73 (Human herpesvirus 8, UniProt O40947); assay: KSHV LANA DNA-binding disruption – biochemical, fluorescence polarization, cherry-picked samples, dose response (AID 504725); parameters: species or system Human gammaherpesvirus 8;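 also: fluorescence polarization of a labeled DNA duplex reporting LANA DNA binding; potency is for inhibitors that block LANA binding to the DNA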
T4 sequence (O40947 whole entry): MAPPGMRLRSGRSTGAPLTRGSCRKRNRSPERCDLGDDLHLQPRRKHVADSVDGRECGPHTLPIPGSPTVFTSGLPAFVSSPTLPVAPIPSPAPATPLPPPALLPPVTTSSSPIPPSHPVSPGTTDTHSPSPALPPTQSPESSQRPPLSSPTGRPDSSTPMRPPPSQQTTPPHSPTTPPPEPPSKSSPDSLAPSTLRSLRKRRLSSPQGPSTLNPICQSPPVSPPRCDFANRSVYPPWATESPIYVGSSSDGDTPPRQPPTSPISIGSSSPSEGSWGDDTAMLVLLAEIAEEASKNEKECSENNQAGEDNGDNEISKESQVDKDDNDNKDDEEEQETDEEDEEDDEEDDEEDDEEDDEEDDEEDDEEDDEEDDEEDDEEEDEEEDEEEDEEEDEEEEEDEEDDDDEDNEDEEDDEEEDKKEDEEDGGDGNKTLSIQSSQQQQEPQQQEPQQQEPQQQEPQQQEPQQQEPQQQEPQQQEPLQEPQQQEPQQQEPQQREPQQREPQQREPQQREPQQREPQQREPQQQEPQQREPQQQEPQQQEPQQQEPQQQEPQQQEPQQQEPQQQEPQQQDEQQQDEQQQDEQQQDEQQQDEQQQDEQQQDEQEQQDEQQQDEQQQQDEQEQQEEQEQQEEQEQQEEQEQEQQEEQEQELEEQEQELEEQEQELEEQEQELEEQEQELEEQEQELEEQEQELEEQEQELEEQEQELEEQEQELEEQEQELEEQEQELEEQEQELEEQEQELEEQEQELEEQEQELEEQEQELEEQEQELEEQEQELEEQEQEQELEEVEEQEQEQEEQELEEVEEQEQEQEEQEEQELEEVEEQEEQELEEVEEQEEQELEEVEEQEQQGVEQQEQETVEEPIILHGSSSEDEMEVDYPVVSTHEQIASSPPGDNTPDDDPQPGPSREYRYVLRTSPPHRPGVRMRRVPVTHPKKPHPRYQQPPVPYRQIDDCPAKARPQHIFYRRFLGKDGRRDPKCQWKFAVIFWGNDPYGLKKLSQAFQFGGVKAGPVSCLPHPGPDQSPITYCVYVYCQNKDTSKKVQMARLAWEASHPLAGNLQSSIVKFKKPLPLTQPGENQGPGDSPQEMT

[14] = target: Keap1/Nrf2 (Homo sapiens, UniProt Q14145); assay: disruptors of Keap1 binding to Nrf2 peptide – biochemical, fluorescence polarization, cherry-picked samples, dose response (AID 588683)
[15] = target: UDP-galactopyranose mutase (Mycobacterium tuberculosis, UniProt P9WIQ1); assay: Inhibitors of Mycobacterium tuberculosis UDP-galactopyranose mutase (UGM) enzyme Measured in Biochemical System Using Plate Reader - 2105-02_Inhibitor_Dose_CherryPick_Activity. [Related pubchem assays (depositor defined):AID504439]
[16] = target: 14-3-3 protein gamma (Homo sapiens, UniProt P61981); assay: modulators of 14-3-3 gamma client binding – dose response (AID 711); type: functional
[17] = tested on: BJ; assay: growth inhibition of engineered Ras-driven BJ cells – cell-based, alamar blue fluorescence, cherrypicked samples, dose response (AID 2631); type: functional; settings: Homo sapiens;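 also: confirmatory dose-response assay in RAS-dependent BJ fibroblasts engineered with TERT, LT and ST, with cytotoxicity read by fluorescence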
[18] = tested on: HeLa; assay: viability loss in HeLa cells – cell-based, 24 h, cherry-picked samples, cytotoxicity control, dose response (AID 504726); type: functional; settings: Homo sapiens;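 also: potency for cytotoxicity as loss of luminescence signal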
[19] = target: Protein S100-A4 (Homo sapiens, UniProt P26447); assay: human S100A4 peptide interaction inhibition curves – biochemical, fluorescence polarization, cherry-picked hits, dose response (AID 687001); type: functional
[20] = target: T5, Apoptotic protease-activating factor 1 (Homo sapiens, UniProt O14727); type: functional
T5 sequence (O14727 whole entry): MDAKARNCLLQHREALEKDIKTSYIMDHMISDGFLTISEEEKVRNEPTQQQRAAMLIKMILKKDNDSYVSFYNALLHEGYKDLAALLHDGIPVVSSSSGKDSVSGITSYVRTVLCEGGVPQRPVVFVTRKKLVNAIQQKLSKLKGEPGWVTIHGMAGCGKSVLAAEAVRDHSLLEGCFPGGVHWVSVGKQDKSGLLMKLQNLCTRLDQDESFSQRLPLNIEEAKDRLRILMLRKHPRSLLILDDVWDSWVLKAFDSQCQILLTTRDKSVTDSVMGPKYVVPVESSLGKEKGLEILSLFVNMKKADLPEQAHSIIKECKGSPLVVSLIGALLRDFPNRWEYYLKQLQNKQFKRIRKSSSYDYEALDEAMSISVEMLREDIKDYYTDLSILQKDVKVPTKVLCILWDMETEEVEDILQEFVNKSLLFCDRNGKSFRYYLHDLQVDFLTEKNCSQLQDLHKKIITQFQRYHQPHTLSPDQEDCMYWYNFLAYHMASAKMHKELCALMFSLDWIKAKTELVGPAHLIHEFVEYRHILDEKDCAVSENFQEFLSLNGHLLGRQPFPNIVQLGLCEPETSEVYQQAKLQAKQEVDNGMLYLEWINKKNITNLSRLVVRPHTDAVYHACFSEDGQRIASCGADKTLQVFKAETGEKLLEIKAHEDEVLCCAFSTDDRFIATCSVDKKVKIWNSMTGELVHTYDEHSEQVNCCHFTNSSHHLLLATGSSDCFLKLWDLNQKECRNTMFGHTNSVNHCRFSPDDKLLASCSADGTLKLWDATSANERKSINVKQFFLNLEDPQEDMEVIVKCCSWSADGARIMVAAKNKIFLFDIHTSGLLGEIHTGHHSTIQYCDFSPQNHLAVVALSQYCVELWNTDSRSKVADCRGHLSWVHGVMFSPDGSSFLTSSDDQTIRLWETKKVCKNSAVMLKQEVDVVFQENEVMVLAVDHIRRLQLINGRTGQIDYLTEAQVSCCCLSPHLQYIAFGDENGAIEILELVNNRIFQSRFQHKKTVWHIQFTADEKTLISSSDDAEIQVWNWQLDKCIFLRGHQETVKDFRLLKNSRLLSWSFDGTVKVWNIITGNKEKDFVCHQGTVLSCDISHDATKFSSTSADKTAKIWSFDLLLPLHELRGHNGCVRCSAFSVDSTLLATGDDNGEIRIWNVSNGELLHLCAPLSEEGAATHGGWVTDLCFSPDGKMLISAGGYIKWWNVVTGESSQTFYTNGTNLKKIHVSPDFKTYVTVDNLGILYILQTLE

[21] = tested on: Streptococcus; assay: GAS UMAA2166 growth inhibition – luminescence, BacTiterGlo, counter-screen for streptokinase expression inhibitor project, dose response (AID 1915); type: functional, organism-based;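 also: potency for reduction of bacterial viability or growth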
[22] = tested on: Streptococcus sp. 'group A'; assay: Streptococcus pyogenes SK(-)GAS viability under kanamycin – luminescence, BacTiterGlo, confirmation, counter-screen for streptokinase expression inhibitor project, dose response (AID 1900); type: functional, organism-based

Protein S100-A4, sequence (P26447 whole entry): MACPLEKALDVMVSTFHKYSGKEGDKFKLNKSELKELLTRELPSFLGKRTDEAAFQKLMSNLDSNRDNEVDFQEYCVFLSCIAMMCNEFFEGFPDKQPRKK
Aryl hydrocarbon receptor, sequence (P35869 whole entry): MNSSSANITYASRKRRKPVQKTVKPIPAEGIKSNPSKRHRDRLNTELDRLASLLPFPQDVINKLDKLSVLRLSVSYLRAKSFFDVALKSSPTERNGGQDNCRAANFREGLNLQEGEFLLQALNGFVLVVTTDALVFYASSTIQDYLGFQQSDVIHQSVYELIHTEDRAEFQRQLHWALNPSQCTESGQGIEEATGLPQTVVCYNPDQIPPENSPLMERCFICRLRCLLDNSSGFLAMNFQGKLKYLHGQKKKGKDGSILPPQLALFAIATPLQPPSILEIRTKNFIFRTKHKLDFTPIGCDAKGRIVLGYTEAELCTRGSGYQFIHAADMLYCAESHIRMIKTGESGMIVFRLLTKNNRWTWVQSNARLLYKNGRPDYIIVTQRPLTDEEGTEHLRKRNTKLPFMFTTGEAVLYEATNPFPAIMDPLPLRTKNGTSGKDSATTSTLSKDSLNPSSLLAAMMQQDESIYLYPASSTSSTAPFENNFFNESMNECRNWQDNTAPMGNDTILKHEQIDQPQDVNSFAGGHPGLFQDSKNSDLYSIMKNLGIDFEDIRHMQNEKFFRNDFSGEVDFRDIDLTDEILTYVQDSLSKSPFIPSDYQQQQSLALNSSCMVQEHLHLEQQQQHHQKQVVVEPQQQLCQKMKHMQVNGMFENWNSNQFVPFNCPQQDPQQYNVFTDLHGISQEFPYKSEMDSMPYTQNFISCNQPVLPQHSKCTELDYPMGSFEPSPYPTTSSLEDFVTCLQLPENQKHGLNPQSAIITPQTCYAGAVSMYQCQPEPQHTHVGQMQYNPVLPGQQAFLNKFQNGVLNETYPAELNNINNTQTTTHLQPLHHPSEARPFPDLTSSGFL
UDP-galactopyranose mutase, sequence (P9WIQ1 whole entry): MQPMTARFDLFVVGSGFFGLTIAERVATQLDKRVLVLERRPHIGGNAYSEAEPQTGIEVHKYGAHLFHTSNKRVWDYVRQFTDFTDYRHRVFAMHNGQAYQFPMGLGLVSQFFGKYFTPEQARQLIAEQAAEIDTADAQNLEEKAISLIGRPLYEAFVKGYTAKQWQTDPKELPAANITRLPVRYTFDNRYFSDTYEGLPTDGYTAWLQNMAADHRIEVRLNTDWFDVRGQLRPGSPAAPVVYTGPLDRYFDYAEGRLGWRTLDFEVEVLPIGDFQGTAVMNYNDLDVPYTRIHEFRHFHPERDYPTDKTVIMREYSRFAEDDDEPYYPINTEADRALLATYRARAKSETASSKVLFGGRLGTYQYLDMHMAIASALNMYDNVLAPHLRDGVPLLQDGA
Galanin receptor type 2, sequence (O43603 whole entry): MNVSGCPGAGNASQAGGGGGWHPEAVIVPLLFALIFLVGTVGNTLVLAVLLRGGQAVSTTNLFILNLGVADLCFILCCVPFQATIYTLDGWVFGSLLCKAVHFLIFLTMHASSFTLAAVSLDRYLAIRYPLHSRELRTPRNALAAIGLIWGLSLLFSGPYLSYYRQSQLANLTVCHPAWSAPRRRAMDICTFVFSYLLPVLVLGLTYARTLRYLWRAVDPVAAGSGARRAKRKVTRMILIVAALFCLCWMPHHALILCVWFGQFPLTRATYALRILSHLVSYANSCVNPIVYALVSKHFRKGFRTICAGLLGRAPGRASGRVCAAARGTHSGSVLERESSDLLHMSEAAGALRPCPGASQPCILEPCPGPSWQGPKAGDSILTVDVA
14-3-3 protein gamma, sequence (P61981 whole entry): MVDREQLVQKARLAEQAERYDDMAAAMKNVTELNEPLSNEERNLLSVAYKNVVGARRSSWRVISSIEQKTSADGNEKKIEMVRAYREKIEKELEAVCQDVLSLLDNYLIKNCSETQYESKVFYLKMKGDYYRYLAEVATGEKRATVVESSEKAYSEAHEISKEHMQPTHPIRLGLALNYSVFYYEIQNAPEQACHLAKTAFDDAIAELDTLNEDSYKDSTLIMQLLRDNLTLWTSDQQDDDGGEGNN
Keap1/Nrf2, sequence (Q16236 whole entry): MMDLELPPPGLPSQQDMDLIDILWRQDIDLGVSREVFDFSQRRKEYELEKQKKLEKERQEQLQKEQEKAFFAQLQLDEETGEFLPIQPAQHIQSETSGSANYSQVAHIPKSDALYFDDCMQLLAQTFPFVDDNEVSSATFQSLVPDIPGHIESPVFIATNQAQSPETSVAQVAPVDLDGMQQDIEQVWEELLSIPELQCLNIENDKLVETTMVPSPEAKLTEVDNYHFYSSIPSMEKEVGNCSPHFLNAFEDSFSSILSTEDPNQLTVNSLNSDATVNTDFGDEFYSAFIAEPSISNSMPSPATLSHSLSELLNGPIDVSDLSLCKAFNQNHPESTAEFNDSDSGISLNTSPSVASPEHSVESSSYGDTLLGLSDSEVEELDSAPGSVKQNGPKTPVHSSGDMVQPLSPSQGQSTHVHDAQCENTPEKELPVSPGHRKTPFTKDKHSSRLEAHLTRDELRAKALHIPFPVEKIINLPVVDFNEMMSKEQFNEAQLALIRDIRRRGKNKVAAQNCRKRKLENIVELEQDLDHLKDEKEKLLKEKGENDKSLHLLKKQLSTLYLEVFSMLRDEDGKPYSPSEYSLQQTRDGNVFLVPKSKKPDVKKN
Keap1/Nrf2, sequence (Q14145 whole entry): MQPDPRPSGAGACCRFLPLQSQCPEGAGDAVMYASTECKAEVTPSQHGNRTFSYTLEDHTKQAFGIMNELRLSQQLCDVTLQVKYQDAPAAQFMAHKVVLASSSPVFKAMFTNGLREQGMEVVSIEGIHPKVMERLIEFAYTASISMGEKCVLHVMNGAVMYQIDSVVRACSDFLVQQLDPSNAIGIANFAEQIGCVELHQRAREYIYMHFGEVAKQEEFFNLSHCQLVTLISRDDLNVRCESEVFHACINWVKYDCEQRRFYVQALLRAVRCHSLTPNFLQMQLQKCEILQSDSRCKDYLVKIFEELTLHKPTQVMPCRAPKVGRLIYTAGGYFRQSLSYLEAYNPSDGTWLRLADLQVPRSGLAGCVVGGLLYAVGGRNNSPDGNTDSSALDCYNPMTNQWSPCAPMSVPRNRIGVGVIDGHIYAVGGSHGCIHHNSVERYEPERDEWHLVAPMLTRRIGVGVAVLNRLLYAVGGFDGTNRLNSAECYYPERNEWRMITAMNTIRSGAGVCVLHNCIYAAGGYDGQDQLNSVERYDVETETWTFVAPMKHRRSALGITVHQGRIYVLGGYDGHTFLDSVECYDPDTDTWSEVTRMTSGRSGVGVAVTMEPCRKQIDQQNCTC
Cytochrome P450 2C9, sequence (P11712 whole entry): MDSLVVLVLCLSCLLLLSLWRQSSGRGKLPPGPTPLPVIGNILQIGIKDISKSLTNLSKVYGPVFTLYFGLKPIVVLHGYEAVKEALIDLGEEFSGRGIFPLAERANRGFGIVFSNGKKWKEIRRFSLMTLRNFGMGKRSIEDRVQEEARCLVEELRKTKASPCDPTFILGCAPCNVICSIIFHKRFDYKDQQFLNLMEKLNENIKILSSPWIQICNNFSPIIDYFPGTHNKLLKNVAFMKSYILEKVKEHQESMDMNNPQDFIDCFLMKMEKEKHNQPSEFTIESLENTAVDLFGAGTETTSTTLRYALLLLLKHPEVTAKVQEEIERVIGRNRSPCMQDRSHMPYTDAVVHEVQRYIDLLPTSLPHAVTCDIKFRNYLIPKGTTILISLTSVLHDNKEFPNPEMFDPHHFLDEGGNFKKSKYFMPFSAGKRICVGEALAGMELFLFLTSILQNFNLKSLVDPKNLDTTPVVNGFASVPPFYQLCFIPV
Sphingosine 1-phosphate receptor 2, sequence (O95136 whole entry): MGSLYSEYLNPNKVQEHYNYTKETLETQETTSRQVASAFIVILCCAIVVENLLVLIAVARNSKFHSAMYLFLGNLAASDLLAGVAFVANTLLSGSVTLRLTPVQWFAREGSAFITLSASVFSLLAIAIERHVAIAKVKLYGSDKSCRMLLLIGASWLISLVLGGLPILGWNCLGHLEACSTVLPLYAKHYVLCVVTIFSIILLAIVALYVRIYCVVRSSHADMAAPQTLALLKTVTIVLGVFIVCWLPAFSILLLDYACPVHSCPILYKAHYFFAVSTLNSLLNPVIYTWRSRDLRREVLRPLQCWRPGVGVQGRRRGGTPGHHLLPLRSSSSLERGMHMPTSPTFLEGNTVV

With `Cc1ccc2[nH]c3c(N4CCc5ccccc5C4)ncnc3c2c1` the AC50 [1] was 1.18 µM (active), the AC50 [2] was < 0.26 µM (active) and the EC50 [3] was 5.96 µM (active). The AC50 [4] was 1.38 µM (active), the AC50 [5] was 2.24 µM (inconclusive) and the IC50 [6] was 3.63 µM (active). The IC50 [7] was > 42 µM (not active), the AC50 [8] was 33.8 µM (active) and the EC50 [9] was 103 µM (active).

For `Cc1cccc2cc3c(N)c(C(=O)N4CCOCC4)sc3nc12`, the EC50 [10] was > 3.39 µM (active) and the EC50 [9] was > 260 µM (inactive).

For `COC(=O)CCCc1nc2ccccc2s1`, the IC50 [11] was > 100 µM (not active).

In the case of `COc1cccc2c1C(=O)c1c(O)c3c(c(O)c1C2=O)C[C@@](O)(C(=O)CO)C[C@@H]3O[C@H]1C[C@H](N)[C@H](O)[C@H](C)O1` [DOXORUBICIN HYDROCHLORIDE], the IC50 [12] was > 80 µM (inactive), the AC50 [13] was 1.46 µM (active) and the AC50 [14] was 43.4 µM (active). For the same molecule, the AC50 [15] was 32.2 µM (active), the IC50 [16] was < 0.781 µM (active) and the EC50 [17] was < 0.104 µM (active). For the same molecule, the AC50 [18] was 4.38 µM (active), the AC50 [19] was 0.323 µM (active) and the IC50 [20] was 21.2 µM (active). The EC50 [21] was 3.69 µM (active) and the EC50 [22] was 0.518 µM (active).

From ChEMBL document CHEMBL1201862, “PubChem BioAssay data set” (2004)
